Assays:
[1] = Cell viability, LDH release assay, normal HUVECs; conditions: human, normal HUVECs, Mean % of viable cells ± SD, HUVEC
[2] = test system: Bax, Bcl-2 and Casp-3 genes expression in HCT-116 cells; assay: qRT-PCR of Bax, Bcl-2 and Casp-3 gene expression, HCT-116; format: cell-based, human; conditions: 30 µg/mL, 48 h
Experimental: To investigate molecular events downstream of ROS generation, we evaluated mRNA expression levels of key regulators of mitochondrial apoptosis—Bax and Bcl-2—using qRT-PCR. […] As a result, the Bax/Bcl-2 ratios were calculated to be 12.63 in LoVo cells and 8.71 in HCT-116 cells, reflecting a pronounced pro-apoptotic shift. This alteration in the Bax/Bcl-2 ratio strongly supports the activation of the mitochondrial apoptotic pathway.
To confirm activation of the execution phase of apoptosis, Casp-3 mRNA levels were evaluated by qRT-PCR.
The expression levels of these genes were determined using a quantitative real-time PCR technique. […]
S3.2.9. Quantification of the Expression Levels of Bax, Bcl-2 and Caspase-3 Genes
Human colon cancer cell lines (HCT-116 and LoVo) were cultured for 24 h in a 25 mL flask at
a density of 1 * 10^6 cells/flask as described in section S3.2.4. Cells were treated with 30 µg/mL
of compound 3d in 2 mL of fresh medium containing 1% FBS, or with 0.25 % DMSO as a
negative control, for 48 h. Afterwards, cells were washed with ice-cold phosphate-buffered
saline (PBS) and adherent cells were detached using trypsin solution.
Table S7 lists primers amplifying 100-200 bp of Bax, Bcl-2 and Caspase-3 genes. These primers
were designed using primer blast software (https://www.ncbi.nlm.nih.gov/tools/primer-
Table S7. Primer sequences for Bax, Bcl-2, Caspase-3, and GAPDH (control)
Gene Primer sequence (5’ to 3’)
Bcl-2 F 5’-[…] -3’,
Caspase 3 F 5’- […]-3’,
GAPDH F 5’- […]-3’
• Reverse-Transcription PCR (RT-PCR)
The total RNA was extracted from untreated and treated cells using the RNeasy Mini Kit
(Qiagen, DE). A Nanodrop 8000 spectrophotometer (Thermo Fisher Scientific, USA) was
used to check the RNA purity and quality. The Hyperscript Kit (GeneAll, KR) and random
hexamers (GeneAll, KR) were used as described in the manufacturer’s protocol to reverse-
transcript 1µg of RNA from each sample into cDNA.
• Quantitative real-time PCR
The mRNA expression of Bax, Bcl-2, and Caspase-3 were measured using QuantStudio
7Flex Detection System (Applied Biosystems, USA). The iScript One-Step RT-PCR Kit with
SYBR Green (Cat no: 170-8892; Bio-Rad, CA, USA) was used to carry out the reactions for
the synthesis of cDNA. Each cDNA sample (5 µl) was added in a 20 µL PCR mixture

[3] = target: PDK-1 (Homo sapiens, UniProt Q15118); assay: In vitro PDK-1 inhibition assay (Kinase-Glo luminescent kinase kit); format: biochemical
[4] = relative to untreated controls, normalized to GAPDH

Sequence of PDK-1 (Q15118 29-436): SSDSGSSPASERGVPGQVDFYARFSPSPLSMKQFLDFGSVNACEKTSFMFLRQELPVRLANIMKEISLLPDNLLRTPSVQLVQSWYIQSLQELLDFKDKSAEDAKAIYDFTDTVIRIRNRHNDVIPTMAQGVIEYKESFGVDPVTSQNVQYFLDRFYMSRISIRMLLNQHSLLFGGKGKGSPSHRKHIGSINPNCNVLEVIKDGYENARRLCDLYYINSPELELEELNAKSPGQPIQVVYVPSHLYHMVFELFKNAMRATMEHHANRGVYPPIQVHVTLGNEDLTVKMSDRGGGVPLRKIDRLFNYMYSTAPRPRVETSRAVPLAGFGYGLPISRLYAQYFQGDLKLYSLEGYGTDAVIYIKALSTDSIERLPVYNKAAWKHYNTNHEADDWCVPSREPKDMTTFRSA

Question: With `COc1cc(/C=N/c2ncnc3sc4c(c23)CCCC4)cc(OC)c1OC` [Compound 3d, (E)-N-(5,6,7,8-Tetrahydrobenzo[4,5]thieno[2,3-d]pyrimidin-4-yl)-1-(3,4,5-trimethoxyphenyl)methanimine] as the compound, how does the viability at 48 h, 100 µg/mL [1] read?
Answer: Its viability at 48 h, 100 µg/mL is roughly 90%.

Question: And the “Bax/Bcl-2 ratio, HCT-116 cells” value [2]?
Answer: Its value is 8.71.

Question: What about the “Bax mRNA expression, fold of control (HCT-116)” value [2, 4] of the same compound?
Answer: Its value is 3.57 ± 0.18 fold.

Question: And the “Bcl-2 mRNA expression, fold of control (HCT-116)” value [2, 4]?
Answer: The value was 0.41 ± 0.04 fold.

Question: And the “Casp-3 mRNA expression, fold of control (HCT-116)” value [2, 4]?
Answer: The value was 4.50 ± 0.40 fold.

Question: What about the inhibition at 100 µg/mL ([3]; 100 µg/mL, three replicates, read-out: Mean Inhibition Percent ± SD, PDK-1) of the same compound?
Answer: Its inhibition at 100 µg/mL is 41.8 ± 3.39%.

Question: And the IC50 ([3]; three independent experiments, read-out: Mean IC50 µM ± SD, PDK-1)?
Answer: The IC50 was 305 ± 11.1 µM.
